From US12514863B2, “Pharmaceutical combination and use thereof” (ASCENTAGE PHARMA (SUZHOU) CO., LTD., priority 2019, dated 2026)

Tests used:
[1] = tested on: ST-02-0103 HER2+Gastric cancer PDX; assay: subcutaneous ST-02-0103 HER2+ gastric cancer PDX model; format: in vivo, mice
Protocol: (§4) A subcutaneous xenograft tumor model of human tumor immunodeficient mice was established by cell inoculation: tumor cells in logarithmic growth phase were collected, counted, resuspended in 1×PBS, and the cell suspension concentration was adjusted to 2.5-5×10^7/mL. The tumor cells were inoculated subcutaneously in the right side of immunodeficient mice with a 1 mL syringe (4 gauge needle), 5-10×10^6/0.2 mL/mouse.
(§5) Tumor volume (TV) is calculated as: TV=a×b^2/2, wherein a and b represent the length and width of the tumor to be measured, respectively.
(§6) The relative tumor volume (RTV) is calculated as: RTV=Vt/V1, wherein V1 is the tumor volume at the start of grouping and administration, and Vt is the tumor volume measured on the t day after administration.
(§7) Lapatinib: 100 mg/kg, PO, QD, for a total of 3 weeks,
(§8) The dosing regimen of each drug in the dosing regimen for the combination is the same as the dosing regimen for the single drug.

[2] = tested on: ST-02-0077 HER2+Gastric cancer PDX; assay: subcutaneous ST-02-0077 HER2+ gastric cancer PDX model; format: in vivo, mice
Protocol: as §4, §5, §6, §7, §8

[3] = tested on: MH-22A syngeneic liver cancer; assay: subcutaneous MH-22A syngeneic liver cancer model (Example 74); format: in vivo, mice
Protocol: (§1) Body weight of animals were monitored simultaneously.
(§2) Compound A: 50 mg/kg, PO, QD, for a total of 21 days,
Lenvatinib: 10 mg/kg, PO, QD, for a total of 21 days, […]

MH-22A syngeneic tumors = assay: MH-22A syngeneic tumors, 5-day dosing (Example 76); format: in vivo, mice
Protocol: Compound A: 50 mg/kg, PO, QD, for a total of 5 days,
Lenvatinib: 10 mg/kg, PO, QD, for a total of 5 days,
Anti-PD-1: 5 mg/kg, I.P., BIW, for a total of 5 days, […]

[4] = tested on: MC38 syngeneic colon cancer; assay: subcutaneous MC38 syngeneic colon cancer model (Example 82); format: in vivo, mice
Protocol: as §1, §2
Lenvatinib: 10 mg/kg, PO, QD, for a total of 21 days,
Anti-PD-1: 5 mg/kg, I.P., BIW, for a total of 21 days, […]

[5] = tested on: ER+ MCF-7 breast cancer xenograft; assay: s.c. ER+ MCF-7 breast cancer xenograft (Examples 7, 11, 27, 28, 44); format: in vivo, mice
[6] = tested on: ER+ MCF-7 breast cancer xenograft; assay: ER+ MCF-7 xenograft, palbociclib plus fulvestrant (Example 8); format: in vivo, mice
Protocol: (§3) Tumor volume (TV) is calculated as:

[7] = tested on: ER+ BR5496 breast cancer PDX; assay: s.c. ER+ BR5496 breast PDX (tamoxifen-resistant); set-up: species or system mice; conditions: mouse, in vivo
Protocol: as §3

[8] = tested on: ER+ tamoxifen resistant MCF-7 breast cancer xenograft; assay: ER+ tamoxifen resistant MCF-7 breast cancer xenograft; set-up: species or system mice; conditions: mouse, in vivo
Protocol: as §3

DOHH2 xenograft = assay: subcutaneous FL DOHH2 xenograft; format: in vivo, mice
Protocol: as §3

[9] = tested on: primary multiple myeloma cells (CL-MM-001, CL-MM-003); assay: cell viability CTG assay, primary multiple myeloma cells; format: cell-based; conditions: MM sample CL-MM-003, 48 hrs; unit assumed
Protocol: IC50 value was calculated using GraphPad Prism. […] CI<0.9 indicate a synergistic combination effect.
Methods used include cell viability CTG assay.

[10] = Cpd A 100 mg/kg, Lapatinib 100 mg/kg
[11] = Compound A 50 mg/kg, Lenvatinib 10 mg/kg, Anti-PD-1 5 mg/kg

Compound: CS(=O)(=O)CCNCc1ccc(-c2ccc3ncnc(Nc4ccc(OCc5cccc(F)c5)c(Cl)c4)c3c2)o1 [Lapatinib, reference compound]
- RTV@D 21 [1, 10]: 3.91 ± 1.00
- T/C(%) @ D 21 ([1]; doses as E195): 64.07%
- RTV@D 21 [2, 10]: 9.29 ± 0.53
- T/C(%) @ D 21 ([2]; doses as E199): 80.03%

Compound: COc1cc2nccc(Oc3ccc(NC(=O)NC4CC4)c(Cl)c3)c2cc1C(N)=O [Lenvatinib, reference compound]
- RTV @ D 15 ([3]; Compound A 50 mg/kg, Lenvatinib 10 mg/kg): 12.94 ± 2.02
- T/C (%) @ D 15 ([3]; doses as E217): 39.29%
- RTV @ D 5 (MH-22A syngeneic tumors; [11]): 3.19 ± 0.18
- T/C (%) @ D 5 (MH-22A syngeneic tumors; doses as E225): 65.07%
- RTV@ D 22 [4, 11]: 9.29 ± 1.60
- T/C(%)@D 22 ([4]; doses as E233): 24.59%

Compound: CC(=O)c1c(C)c2cnc(Nc3ccc(N4CCNCC4)cn3)nc2n(C2CCCC2)c1=O [Palbociclib, reference compound]
- RTV@D 36 ([5]; doses as E21): 2.9 ± 0.8
- T/C(%)@D 22 ([5]; doses as E21): 39.3%
- T/C(%)@D 36 ([5]; doses as E21): 44.2%
- RTV@D 36 ([6]; Compound A 100 mg/kg, Palbociclib 20 mg/kg, Fulvestrant 20 mg/kg): 3.4 ± 0.7
- T/C(%)@D 36 ([6]; doses as E30): 57.1%
- RTV @ D 50 [7]: 3.43 ± 0.68
- T/C (%) @ D 50 [7]: 78.01%
- RTV @ D 25 [8]: 4.86 ± 0.71
- T/C (%) @ D 25 [8]: 83.86%

Compound: CC/C(=C(\c1ccccc1)c1ccc(OCCN(C)C)cc1)c1ccccc1 [Tamoxifen]
- RTV@ D 22 ([5]; Compound A 100 mg/kg, Palbociclib 50 mg/kg, Tamoxifen 3 or 1 mg/kg, Compound B 50 mg/kg): 0.7 ± 0.3
- ORR ([5]; doses as E21): 66.7%
- RTV@D 36 ([5]; doses as E21): 1.4 ± 0.8
- T/C(%)@D 22 ([5]; doses as E21): 20.4%
- T/C(%)@D 36 ([5]; doses as E21): 22.0%

Compound: CC[C@H](Nc1ncnc2[nH]cnc12)c1nc2cccc(F)c2c(=O)n1-c1ccccc1 [idelalisib, reference compound]
- RTV@D 21 (DOHH2 xenograft; Compound A 50 mg/kg, qd, po, idelalisib 15 mg/kg, bid): 10.7 ± 0.95
- T/C(%) @211 (DOHH2 xenograft; doses as E51): 75.8%

Compound: Nc1cccc2c1CN(C1CCC(=O)NC1=O)C2=O (stereo not shown) [lenalidomide]
- quantified cell viability [9]: 72.4%

Compound: Nc1cccc2c1C(=O)N(C1CCC(=O)NC1=O)C2=O (stereo not shown) [pomalodomide]
- quantified cell viability [9]: 63.4%
